Assay results taken from PubChem BioAssay (NCI).
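Five concentrations, 48 hours, 96-well plates. Here, GI50 denotes the concentration required for 50% inhibition of growth. The concentration for full growth arrest is given as TGI.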

What was measured:
Assay in all cases: DTP human tumour cell line panel, 48 h
786-0 renal = tested on: 786-0 renal
A498 renal = tested on: A498 renal
A549 NSCLC = tested on: A549 NSCLC
ACHN renal = tested on: ACHN renal
BT-549 breast = tested on: BT-549 breast
CAKI-1 renal = tested on: CAKI-1 renal
CCRF-CEM leukemia = tested on: CCRF-CEM leukemia
COLO 205 colon = tested on: COLO 205 colon
DU-145 prostate = tested on: DU-145 prostate
EKVX NSCLC = tested on: EKVX NSCLC
HCC-2998 colon = tested on: HCC-2998 colon
HCT-116 colon = tested on: HCT-116 colon
HCT-15 colon = tested on: HCT-15 colon
HL-60(TB) leukemia = tested on: HL-60(TB) leukemia
HOP-62 NSCLC = tested on: HOP-62 NSCLC
HS 578T breast = tested on: HS 578T breast
HT29 colon = tested on: HT29 colon
IGROV1 ovarian = tested on: IGROV1 ovarian
K-562 leukemia = tested on: K-562 leukemia
KM12 colon = tested on: KM12 colon
LOX IMVI melanoma = tested on: LOX IMVI melanoma
M14 melanoma = tested on: M14 melanoma
MALME-3M melanoma = tested on: MALME-3M melanoma
MCF7 breast = tested on: MCF7 breast
MDA-MB-231 breast = tested on: MDA-MB-231 breast
MDA-MB-435 = tested on: MDA-MB-435
MOLT-4 leukemia = tested on: MOLT-4 leukemia
NCI-H226 lung = tested on: NCI-H226 lung
NCI-H23 lung = tested on: NCI-H23 lung
NCI-H460 lung = tested on: NCI-H460 lung
NCI-H522 lung = tested on: NCI-H522 lung
NCI/ADR-RES ovarian = tested on: NCI/ADR-RES ovarian
OVCAR-3 ovarian = tested on: OVCAR-3 ovarian
OVCAR-4 ovarian = tested on: OVCAR-4 ovarian
OVCAR-5 ovarian = tested on: OVCAR-5 ovarian
OVCAR-8 ovarian = tested on: OVCAR-8 ovarian
PC-3 prostate = tested on: PC-3 prostate
RPMI-8226 leukemia = tested on: RPMI-8226 leukemia
RXF 393 renal = tested on: RXF 393 renal
SF-268 CNS = tested on: SF-268 CNS
SF-295 CNS = tested on: SF-295 CNS
SF-539 CNS = tested on: SF-539 CNS
SK-MEL-28 melanoma = tested on: SK-MEL-28 melanoma
SK-MEL-5 melanoma = tested on: SK-MEL-5 melanoma
SK-OV-3 ovarian = tested on: SK-OV-3 ovarian
SN12C renal = tested on: SN12C renal
SNB-19 CNS = tested on: SNB-19 CNS
SNB-75 CNS = tested on: SNB-75 CNS
SR leukemia = tested on: SR leukemia
SW-620 colon = tested on: SW-620 colon
T-47D breast = tested on: T-47D breast
TK-10 renal = tested on: TK-10 renal
U251 CNS = tested on: U251 CNS
UACC-257 melanoma = tested on: UACC-257 melanoma
UACC-62 melanoma = tested on: UACC-62 melanoma
UO-31 renal = tested on: UO-31 renal

## CN(C)c1ccc(Nc2ncnc3ccccc23)cc1
786-0 renal
  GI50: > 100 µM
  TGI: > 100 µM
A498 renal
  GI50: > 100 µM
  TGI: > 100 µM
A549 NSCLC
  GI50: > 100 µM
  TGI: > 100 µM
ACHN renal
  GI50: > 100 µM
  TGI: > 100 µM
BT-549 breast
  GI50: > 100 µM
  TGI: > 100 µM
CAKI-1 renal
  GI50: > 100 µM
  TGI: > 100 µM
CCRF-CEM leukemia
  GI50: > 100 µM
  TGI: > 100 µM
COLO 205 colon
  GI50: > 100 µM
  TGI: > 100 µM
DU-145 prostate
  GI50: > 100 µM
  TGI: > 100 µM
EKVX NSCLC
  GI50: > 100 µM
  TGI: > 100 µM
HCC-2998 colon
  GI50: > 100 µM
  TGI: > 100 µM
HCT-116 colon
  GI50: > 100 µM
  TGI: > 100 µM
HCT-15 colon
  GI50: > 100 µM
  TGI: > 100 µM
HL-60(TB) leukemia
  GI50: > 100 µM
  TGI: > 100 µM
HOP-62 NSCLC
  GI50: > 100 µM
  TGI: > 100 µM
HS 578T breast
  GI50: > 100 µM
  TGI: > 100 µM
HT29 colon
  GI50: > 100 µM
  TGI: > 100 µM
IGROV1 ovarian
  GI50: > 100 µM
  TGI: > 100 µM
K-562 leukemia
  GI50: > 100 µM
  TGI: > 100 µM
KM12 colon
  GI50: > 100 µM
  TGI: > 100 µM
LOX IMVI melanoma
  GI50: > 100 µM
  TGI: > 100 µM
M14 melanoma
  GI50: > 100 µM
  TGI: > 100 µM
MALME-3M melanoma
  GI50: > 100 µM
  TGI: > 100 µM
MCF7 breast
  GI50: > 100 µM
  TGI: > 100 µM
MDA-MB-231 breast
  GI50: > 100 µM
  TGI: > 100 µM
MDA-MB-435
  GI50: > 100 µM
  TGI: > 100 µM
MOLT-4 leukemia
  GI50: 18.8 µM
  TGI: > 100 µM
NCI-H226 lung
  GI50: > 100 µM
  TGI: > 100 µM
NCI-H23 lung
  GI50: > 100 µM
  TGI: > 100 µM
NCI-H460 lung
  GI50: > 100 µM
  TGI: > 100 µM
NCI-H522 lung
  GI50: > 100 µM
  TGI: > 100 µM
NCI/ADR-RES ovarian
  GI50: > 100 µM
  TGI: > 100 µM
OVCAR-3 ovarian
  GI50: > 100 µM
  TGI: > 100 µM
OVCAR-4 ovarian
  GI50: > 100 µM
  TGI: > 100 µM
OVCAR-5 ovarian
  GI50: > 100 µM
  TGI: > 100 µM
OVCAR-8 ovarian
  GI50: > 100 µM
  TGI: > 100 µM
PC-3 prostate
  GI50: > 100 µM
  TGI: > 100 µM
RPMI-8226 leukemia
  GI50: > 100 µM
  TGI: > 100 µM
RXF 393 renal
  GI50: > 100 µM
  TGI: > 100 µM
SF-268 CNS
  GI50: > 100 µM
  TGI: > 100 µM
SF-295 CNS
  GI50: > 100 µM
  TGI: > 100 µM
SF-539 CNS
  GI50: > 100 µM
  TGI: > 100 µM
SK-MEL-28 melanoma
  GI50: > 100 µM
  TGI: > 100 µM
SK-MEL-5 melanoma
  GI50: > 100 µM
  TGI: > 100 µM
SK-OV-3 ovarian
  GI50: > 100 µM
  TGI: > 100 µM
SN12C renal
  GI50: > 100 µM
  TGI: > 100 µM
SNB-19 CNS
  GI50: > 100 µM
  TGI: > 100 µM
SNB-75 CNS
  GI50: > 100 µM
  TGI: > 100 µM
SR leukemia
  GI50: 54.3 µM
  TGI: > 100 µM
SW-620 colon
  GI50: > 100 µM
  TGI: > 100 µM
T-47D breast
  GI50: > 100 µM
  TGI: > 100 µM
TK-10 renal
  GI50: > 100 µM
  TGI: > 100 µM
U251 CNS
  GI50: > 100 µM
  TGI: > 100 µM
UACC-257 melanoma
  GI50: > 100 µM
  TGI: > 100 µM
UACC-62 melanoma
  GI50: > 100 µM
  TGI: > 100 µM
UO-31 renal
  GI50: > 100 µM
  TGI: > 100 µM
